Laboratory results: ChEMBL document CHEMBL5212743, “Selectivity Literature for EUbOPEN Chemogenomics Library wave 3” (2023)
Blank lines part the entries; values can stand above or below the compound they belong to.

What was measured:
[1] = molecular target: T1, Serine/threonine-protein kinase Sgk1 (Homo sapiens) (UniProt O00141); assay: Selectivity interaction (Kinase panel (University of Dundee)) EUB0000169b SGK1; conditions: at 10 µM
T1 sequence (whole entry): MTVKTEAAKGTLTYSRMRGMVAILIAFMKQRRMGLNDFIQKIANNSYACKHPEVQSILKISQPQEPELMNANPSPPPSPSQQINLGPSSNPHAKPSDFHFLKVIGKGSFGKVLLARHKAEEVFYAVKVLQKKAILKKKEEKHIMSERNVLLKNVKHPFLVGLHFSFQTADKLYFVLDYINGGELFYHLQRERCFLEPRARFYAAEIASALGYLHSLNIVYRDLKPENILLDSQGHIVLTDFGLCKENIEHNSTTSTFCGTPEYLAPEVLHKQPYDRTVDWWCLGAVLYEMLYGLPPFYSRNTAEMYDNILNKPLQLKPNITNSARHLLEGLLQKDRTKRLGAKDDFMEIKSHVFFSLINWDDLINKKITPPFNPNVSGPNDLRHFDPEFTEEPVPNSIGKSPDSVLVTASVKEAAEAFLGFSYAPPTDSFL

[2] = molecular target: cAMP-dependent protein kinase catalytic subunit alpha (Homo sapiens, UniProt P17612); assay: Selectivity interaction (Kinase panel (University of Dundee)) EUB0000169b PRKACA; conditions: at 10 µM
[3] = molecular target: MAP kinase-activated protein kinase 2 (Homo sapiens, UniProt P49137); assay: Selectivity interaction (Kinase panel (University of Dundee)) EUB0000169b MAPKAPK2; conditions: at 10 µM
[4] = molecular target: Serine/threonine-protein kinase PLK2 (Homo sapiens) (UniProt Q9NYY3); assay: Selectivity interaction (KinomeScan (DiscoverX)) EUB0000698a PLK2; conditions: at 10 µM
[5] = molecular target: T2, Receptor-interacting serine/threonine-protein kinase 4 (Homo sapiens) (UniProt P57078); assay: Selectivity interaction (KinomeScan (DiscoverX)) EUB0000702a RIPK4; conditions: at 1 µM
T2 sequence (whole entry): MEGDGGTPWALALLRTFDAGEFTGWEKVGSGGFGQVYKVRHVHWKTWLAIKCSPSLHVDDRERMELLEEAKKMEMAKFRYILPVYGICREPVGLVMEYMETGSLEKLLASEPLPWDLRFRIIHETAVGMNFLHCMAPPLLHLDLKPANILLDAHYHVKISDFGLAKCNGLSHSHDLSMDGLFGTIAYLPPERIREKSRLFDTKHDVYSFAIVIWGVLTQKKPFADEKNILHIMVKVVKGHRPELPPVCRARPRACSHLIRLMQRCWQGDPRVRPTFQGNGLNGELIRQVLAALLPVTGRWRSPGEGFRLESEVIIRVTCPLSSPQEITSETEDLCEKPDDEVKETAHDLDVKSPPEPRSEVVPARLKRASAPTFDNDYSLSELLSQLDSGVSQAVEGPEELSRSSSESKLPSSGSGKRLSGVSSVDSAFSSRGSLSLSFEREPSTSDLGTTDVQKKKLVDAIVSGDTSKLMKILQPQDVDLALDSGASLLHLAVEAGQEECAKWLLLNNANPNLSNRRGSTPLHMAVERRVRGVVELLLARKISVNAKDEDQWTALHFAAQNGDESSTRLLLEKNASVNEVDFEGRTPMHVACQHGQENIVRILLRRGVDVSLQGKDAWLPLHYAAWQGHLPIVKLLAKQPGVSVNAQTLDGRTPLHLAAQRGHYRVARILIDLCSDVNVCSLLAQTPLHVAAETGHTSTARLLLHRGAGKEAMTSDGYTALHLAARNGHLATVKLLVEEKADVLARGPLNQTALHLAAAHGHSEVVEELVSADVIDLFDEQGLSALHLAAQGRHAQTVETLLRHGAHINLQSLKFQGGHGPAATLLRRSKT

[6] = molecular target: T3, Phosphatidylinositol 5-phosphate 4-kinase type-2 beta (Homo sapiens) (UniProt P78356); assay: Selectivity interaction (KinomeScan (DiscoverX)) EUB0000702a PIP4K2B; conditions: at 1 µM
T3 sequence (whole entry): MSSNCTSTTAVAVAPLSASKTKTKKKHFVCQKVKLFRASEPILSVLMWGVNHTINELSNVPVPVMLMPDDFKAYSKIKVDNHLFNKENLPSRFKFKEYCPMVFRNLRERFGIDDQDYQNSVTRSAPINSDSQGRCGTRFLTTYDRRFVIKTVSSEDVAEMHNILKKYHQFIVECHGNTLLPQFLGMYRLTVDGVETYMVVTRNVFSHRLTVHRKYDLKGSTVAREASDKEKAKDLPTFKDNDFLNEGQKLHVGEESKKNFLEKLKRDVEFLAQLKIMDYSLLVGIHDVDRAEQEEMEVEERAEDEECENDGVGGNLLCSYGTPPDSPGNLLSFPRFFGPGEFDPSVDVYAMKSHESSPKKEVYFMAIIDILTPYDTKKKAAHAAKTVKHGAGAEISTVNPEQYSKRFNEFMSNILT

[7] = system: Hepatocyte growth factor receptor (Homo sapiens), P08581 [M1250T]; assay: (§1) Selectivity interaction (KinomeScan (DiscoverX)) EUB0000702a MET; conditions: at 1 µM
[8] = system: Hepatocyte growth factor receptor (Homo sapiens), P08581 [Y1235D]; assay: as §1; conditions: at 1 µM
[9] = molecular target: Serine/threonine-protein kinase 16 (Homo sapiens, UniProt O75716); assay: Selectivity interaction (KinomeScan (DiscoverX)) EUB0000138c STK16; conditions: at 100 nM
[10] = molecular target: Cyclin-dependent kinase 8 (Homo sapiens) (UniProt P49336); conditions: at 1 µM
[11] = molecular target: Mitogen-activated protein kinase kinase kinase 19 (Homo sapiens, UniProt Q56UN5); assay: Selectivity interaction (NanoBRET assay (HEK293T cells)) EUB0000305b MAP3K19
[12] = molecular target: T4, Dual specificity mitogen-activated protein kinase kinase 5 (Homo sapiens, UniProt Q13163); assay: Selectivity interaction (Enzymatic assay) EUB0000305b MAP2K5
T4 sequence (Q13163 whole entry): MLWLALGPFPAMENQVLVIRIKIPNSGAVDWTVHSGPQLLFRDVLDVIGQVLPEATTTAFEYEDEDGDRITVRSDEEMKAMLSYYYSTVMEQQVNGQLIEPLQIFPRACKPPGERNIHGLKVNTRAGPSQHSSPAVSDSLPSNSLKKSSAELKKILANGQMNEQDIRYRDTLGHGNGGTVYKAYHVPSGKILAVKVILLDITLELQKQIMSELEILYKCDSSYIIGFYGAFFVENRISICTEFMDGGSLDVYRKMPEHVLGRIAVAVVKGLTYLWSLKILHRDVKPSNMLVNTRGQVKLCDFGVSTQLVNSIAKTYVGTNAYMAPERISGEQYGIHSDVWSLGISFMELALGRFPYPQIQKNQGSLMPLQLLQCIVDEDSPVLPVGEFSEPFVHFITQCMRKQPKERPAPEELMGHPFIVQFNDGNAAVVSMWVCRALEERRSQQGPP

Chain of Serine/threonine-protein kinase PLK2 (Homo sapiens) (Q9NYY3 whole entry, looked up): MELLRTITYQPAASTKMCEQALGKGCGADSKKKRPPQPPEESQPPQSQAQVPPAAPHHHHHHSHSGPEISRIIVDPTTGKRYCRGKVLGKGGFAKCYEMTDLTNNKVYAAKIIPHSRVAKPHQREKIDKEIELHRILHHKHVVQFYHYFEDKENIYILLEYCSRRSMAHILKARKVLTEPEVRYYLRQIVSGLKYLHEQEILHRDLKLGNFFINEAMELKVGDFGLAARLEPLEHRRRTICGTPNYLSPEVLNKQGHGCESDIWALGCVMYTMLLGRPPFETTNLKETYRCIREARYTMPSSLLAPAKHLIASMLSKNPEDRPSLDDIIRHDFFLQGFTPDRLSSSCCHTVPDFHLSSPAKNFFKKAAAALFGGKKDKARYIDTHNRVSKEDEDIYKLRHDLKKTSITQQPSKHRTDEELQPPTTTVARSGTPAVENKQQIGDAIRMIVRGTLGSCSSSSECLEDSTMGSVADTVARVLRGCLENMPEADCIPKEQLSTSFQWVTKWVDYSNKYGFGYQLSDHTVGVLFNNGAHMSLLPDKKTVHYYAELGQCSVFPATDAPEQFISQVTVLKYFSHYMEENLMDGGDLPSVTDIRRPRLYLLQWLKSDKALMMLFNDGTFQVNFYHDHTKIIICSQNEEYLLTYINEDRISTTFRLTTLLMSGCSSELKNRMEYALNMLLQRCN
Chain of Hepatocyte growth factor receptor (Homo sapiens), P08581 [Y1235D] (P08581 whole entry Y1235D): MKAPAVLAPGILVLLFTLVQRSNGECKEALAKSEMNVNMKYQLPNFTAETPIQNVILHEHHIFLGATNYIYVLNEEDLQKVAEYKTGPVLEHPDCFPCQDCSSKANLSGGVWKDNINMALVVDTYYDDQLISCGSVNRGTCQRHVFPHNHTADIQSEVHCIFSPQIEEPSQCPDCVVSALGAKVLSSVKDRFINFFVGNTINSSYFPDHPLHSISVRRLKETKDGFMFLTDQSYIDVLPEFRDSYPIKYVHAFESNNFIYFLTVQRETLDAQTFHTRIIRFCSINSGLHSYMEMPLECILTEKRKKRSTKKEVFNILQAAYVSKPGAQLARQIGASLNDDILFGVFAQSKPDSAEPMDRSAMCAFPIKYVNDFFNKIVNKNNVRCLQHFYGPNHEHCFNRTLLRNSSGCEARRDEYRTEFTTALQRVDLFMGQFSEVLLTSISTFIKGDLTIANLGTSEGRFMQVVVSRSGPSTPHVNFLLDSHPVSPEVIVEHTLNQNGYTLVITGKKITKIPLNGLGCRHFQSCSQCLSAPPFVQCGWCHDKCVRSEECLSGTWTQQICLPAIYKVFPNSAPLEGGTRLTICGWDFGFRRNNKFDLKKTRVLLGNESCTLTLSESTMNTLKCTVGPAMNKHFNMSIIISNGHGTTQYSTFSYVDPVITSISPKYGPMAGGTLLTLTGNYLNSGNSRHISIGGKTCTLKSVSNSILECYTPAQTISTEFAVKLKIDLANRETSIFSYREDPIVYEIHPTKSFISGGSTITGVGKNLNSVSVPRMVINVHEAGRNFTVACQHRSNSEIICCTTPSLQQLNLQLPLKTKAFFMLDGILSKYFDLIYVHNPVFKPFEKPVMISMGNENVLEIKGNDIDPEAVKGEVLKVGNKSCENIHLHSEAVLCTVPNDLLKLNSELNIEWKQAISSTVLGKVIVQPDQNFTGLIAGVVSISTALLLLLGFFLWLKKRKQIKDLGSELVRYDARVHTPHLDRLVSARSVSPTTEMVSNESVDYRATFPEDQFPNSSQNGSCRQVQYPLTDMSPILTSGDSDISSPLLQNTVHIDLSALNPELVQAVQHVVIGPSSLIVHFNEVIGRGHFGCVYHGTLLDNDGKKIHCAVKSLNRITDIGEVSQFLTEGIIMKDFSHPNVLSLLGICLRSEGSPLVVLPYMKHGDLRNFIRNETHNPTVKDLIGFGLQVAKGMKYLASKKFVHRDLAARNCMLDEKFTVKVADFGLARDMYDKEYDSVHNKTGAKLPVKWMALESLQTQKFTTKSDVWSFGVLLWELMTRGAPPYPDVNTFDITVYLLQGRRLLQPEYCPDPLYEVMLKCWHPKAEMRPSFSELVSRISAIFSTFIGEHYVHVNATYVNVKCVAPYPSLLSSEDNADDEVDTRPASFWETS
Chain of MAP kinase-activated protein kinase 2 (P49137 whole entry, looked up): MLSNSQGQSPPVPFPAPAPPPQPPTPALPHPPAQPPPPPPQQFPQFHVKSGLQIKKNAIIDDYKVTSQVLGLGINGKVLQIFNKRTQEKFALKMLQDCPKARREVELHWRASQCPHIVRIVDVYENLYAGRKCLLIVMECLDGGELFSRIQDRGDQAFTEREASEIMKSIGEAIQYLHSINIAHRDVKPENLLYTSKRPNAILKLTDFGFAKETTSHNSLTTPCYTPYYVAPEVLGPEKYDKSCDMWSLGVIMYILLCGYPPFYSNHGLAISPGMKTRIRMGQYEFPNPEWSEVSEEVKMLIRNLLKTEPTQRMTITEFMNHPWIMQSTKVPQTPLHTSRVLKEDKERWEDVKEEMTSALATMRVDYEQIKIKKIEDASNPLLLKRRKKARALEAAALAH
Chain of Mitogen-activated protein kinase kinase kinase 19 (Q56UN5 whole entry): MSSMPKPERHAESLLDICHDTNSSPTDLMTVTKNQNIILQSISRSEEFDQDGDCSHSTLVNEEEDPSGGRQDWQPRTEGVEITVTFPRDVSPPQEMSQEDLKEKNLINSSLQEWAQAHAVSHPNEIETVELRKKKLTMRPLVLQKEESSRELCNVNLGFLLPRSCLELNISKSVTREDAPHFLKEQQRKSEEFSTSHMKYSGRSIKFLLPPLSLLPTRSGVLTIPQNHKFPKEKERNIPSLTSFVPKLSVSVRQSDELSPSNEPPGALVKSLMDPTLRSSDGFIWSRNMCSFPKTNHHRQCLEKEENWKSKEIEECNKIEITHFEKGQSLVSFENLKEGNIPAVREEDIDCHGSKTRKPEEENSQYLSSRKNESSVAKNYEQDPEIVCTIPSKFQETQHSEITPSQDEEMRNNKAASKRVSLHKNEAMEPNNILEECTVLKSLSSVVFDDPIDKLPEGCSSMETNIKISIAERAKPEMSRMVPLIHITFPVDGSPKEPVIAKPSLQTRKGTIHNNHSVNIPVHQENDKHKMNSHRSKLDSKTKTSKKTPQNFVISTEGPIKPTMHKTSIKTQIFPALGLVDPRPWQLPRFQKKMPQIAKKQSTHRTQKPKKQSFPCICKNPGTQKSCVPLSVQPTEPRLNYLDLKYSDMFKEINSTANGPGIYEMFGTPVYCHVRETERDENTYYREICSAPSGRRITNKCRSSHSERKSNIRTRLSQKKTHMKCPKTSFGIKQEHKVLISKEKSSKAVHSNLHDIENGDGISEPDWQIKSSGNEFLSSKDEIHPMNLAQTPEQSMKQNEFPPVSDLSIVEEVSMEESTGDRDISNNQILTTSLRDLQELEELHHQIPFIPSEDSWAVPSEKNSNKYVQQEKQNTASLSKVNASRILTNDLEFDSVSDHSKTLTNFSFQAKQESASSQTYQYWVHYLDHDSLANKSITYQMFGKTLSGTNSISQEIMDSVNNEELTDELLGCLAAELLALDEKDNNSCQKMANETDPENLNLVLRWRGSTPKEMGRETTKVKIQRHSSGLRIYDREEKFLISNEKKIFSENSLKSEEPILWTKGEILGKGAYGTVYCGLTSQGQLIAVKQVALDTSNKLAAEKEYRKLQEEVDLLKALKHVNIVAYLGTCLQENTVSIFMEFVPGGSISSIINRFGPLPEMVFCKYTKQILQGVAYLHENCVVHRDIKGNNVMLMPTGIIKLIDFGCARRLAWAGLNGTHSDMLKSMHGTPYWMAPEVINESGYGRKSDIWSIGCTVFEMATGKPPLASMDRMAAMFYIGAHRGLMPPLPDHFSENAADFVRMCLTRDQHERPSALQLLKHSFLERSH
Chain of Serine/threonine-protein kinase 16 (O75716 whole entry): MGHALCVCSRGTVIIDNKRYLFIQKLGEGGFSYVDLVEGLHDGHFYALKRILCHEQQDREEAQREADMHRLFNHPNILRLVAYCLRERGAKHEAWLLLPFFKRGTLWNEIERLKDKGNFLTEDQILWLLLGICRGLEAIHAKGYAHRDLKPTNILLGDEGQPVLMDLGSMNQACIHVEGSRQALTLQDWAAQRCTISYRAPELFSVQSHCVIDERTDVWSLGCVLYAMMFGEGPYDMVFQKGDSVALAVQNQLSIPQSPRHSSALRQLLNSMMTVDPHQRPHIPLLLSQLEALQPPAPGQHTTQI
Chain of Cyclin-dependent kinase 8 (Homo sapiens) (P49336 whole entry): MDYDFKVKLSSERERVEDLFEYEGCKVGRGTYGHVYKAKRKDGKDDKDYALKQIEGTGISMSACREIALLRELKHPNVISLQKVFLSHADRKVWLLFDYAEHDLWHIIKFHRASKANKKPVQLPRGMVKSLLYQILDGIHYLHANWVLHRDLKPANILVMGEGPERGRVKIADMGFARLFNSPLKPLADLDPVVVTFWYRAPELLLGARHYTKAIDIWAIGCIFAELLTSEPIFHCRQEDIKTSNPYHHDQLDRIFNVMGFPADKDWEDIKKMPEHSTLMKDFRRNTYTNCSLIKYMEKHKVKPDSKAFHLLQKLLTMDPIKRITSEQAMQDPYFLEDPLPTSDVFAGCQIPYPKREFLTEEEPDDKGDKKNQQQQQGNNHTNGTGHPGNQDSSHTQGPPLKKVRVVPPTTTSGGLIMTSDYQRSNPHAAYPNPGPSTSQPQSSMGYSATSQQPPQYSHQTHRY

% of control [5]: 6% | % of control [6]: 4.8% | % of control [7]: 6.8% | % of control [8]: 10%
SMILES: CN(c1ccnc(CNc2nc(Nc3ccc4c(c3)CC(=O)N4)ncc2C(F)(F)F)n1)S(C)(=O)=O [PF-00911705]

IC50 [11]: > 20000 nM | IC50 [12]: 847 nM
SMILES: C[C@H](c1ccnc(Nc2nc3ccc(-c4cc(N(C)C)ncn4)cc3[nH]2)c1)N1CCN(C(=O)CC(F)(F)F)CC1 [BAY-985]

Continued, compound first:

SMILES: CC[C@@H]1C(=O)N(C)c2cnc(Nc3ccc(C(=O)NC4CCN(C)CC4)cc3OC)nc2N1C1CCCC1
% of control [1]: 80% | % of control [2]: 100% | % of control [3]: 79%

SMILES: COc1cc2ncn(-c3cc(OCc4ccccc4C(F)(F)F)c(C(N)=O)s3)c2cc1OC [GW843682X]
% of control [4]: 0.2%

SMILES: CNC(=O)c1ccc(Nc2ncc(C(F)(F)F)c(NCc3nccnc3N(C)S(C)(=O)=O)n2)cc1 [DEFACTINIB]
% of control [9]: 7.7%

SMILES: CCOc1cn(-c2ccc(F)cc2C)nc1C(=O)Nc1ccc(Oc2ccnc3cc(OC)c(OC)cc23)c(F)c1
% of control [10]: < 10%
